From PMC4639830, “Inhibition of DYRK1A and GSK3B induces human β-cell proliferation” (Nature Communications, 2015) come the findings set out here.

“Also recorded” adds a separate entry of the source.

Assay [1] relates to adult rat primary β-cells. The experiment in a line: Rat β-cell proliferation assay, EdU incorporation, dissociated islets. It counts as cell-based. The settings on record: for rat β-cell proliferation (EdU incorporation), in words: dispersed rat islets; for β-cell proliferation in combination with GNF4877: sub-EC50 GNF4877, Figs 7a,d (human and rat β-cells); for primary rat β-cell proliferation, combination of Chiron99021 with TG003: 4 days. Here is the method: (§1) Rat or human β-cell proliferation assays were performed using dissociated primary rat or human islets. Islets were treated with the indicated compounds in the presence of EdU for 4 days before fixing and staining. […] For intact islet assays, primary human islets were treated for 7 or 8 days (as indicated in the legend). Rat dissociated islets were cultured in RPMI medium containing 10% FBS and human dissociated islets were cultured in PIM-S media (Prodo laboratories) with 10% human […].

Assay [2] concerns β-cells from dissociated adult primary human islets. Briefly: Human β-cell proliferation assay, EdU incorporation, dissociated islets. The conditions noted are these: for human β-cell proliferation (EdU incorporation), in words: dispersed human islets; for effect of co-treatment on human β-cell proliferation induced by GNF4877: GNF4877 2 μM, FK506 12 nM to 1 μM. Type of assay: cell-based. How it is done: as §1

Assay [3] addresses T1, Dyrk1a (Homo sapiens, UniProt Q13627).
T1 construct: purchased Ambit KINOMEscan
The experiment in a line: Dyrk1a kinase activity, biochemical assay.

The target of assay [4] is Gsk3b (Homo sapiens, UniProt P49841). Briefly: Gsk3b biochemical kinase assay.
For assay [5], the system named is rat islet cells. The experiment in a line: eFluor670 vital dye dilution (cell division). Type of assay: cell-based. The conditions noted are these: 5 days treatment. The text has this: The extent of proliferation of human islet cells was too low to be detected with this method, consistent with the lower level of EdU incorporation induced in human islets.
In assay [6] the test system is β-catenin nuclear localization in primary rat islets. The experiment in a line: β-Catenin nuclear translocation. It counts as cell-based. How it is done: At the end of the treatment, cells were fixed with 4% paraformaldehyde, blocked and permeabilized, and stained by standard immunofluorescence techniques for β-catenin (Cell signaling, #9562L; dilution 1:500), NFATc1 (Santa Cruz, rabbit polyclonal, SC-7294; dilution 1:200) or NFAT3c (Santa Cruz, SC-8321; dilution 1:200) and nuclear DNA was stained with DAPI (Molecular Probes; dilution 1:1,000). EdU incorporation was measured by click reaction with AlexaFluor-647-azide (Invitrogen). Plates were imaged with confocal microscope and analysed by Metamorph (Molecular Devices).

Chain of Gsk3b (P49841 whole entry, species assumed): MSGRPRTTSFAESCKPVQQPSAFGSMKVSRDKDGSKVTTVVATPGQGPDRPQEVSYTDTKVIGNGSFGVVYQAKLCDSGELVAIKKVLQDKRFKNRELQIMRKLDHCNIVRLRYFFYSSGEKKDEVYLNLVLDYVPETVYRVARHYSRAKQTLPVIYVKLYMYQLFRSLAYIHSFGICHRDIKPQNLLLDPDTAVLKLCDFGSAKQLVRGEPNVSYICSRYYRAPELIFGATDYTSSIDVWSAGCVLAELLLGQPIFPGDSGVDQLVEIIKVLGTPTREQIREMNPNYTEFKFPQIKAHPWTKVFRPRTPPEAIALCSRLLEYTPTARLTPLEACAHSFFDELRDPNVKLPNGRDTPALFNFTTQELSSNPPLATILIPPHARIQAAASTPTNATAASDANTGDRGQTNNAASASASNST

As for `[Cl-].[Li+]` [LiCl], the “rat β-cell proliferation (EdU incorporation), in words” value (“rat β-cell proliferation … in words” below) in assay [1] is “significantly lower extent than GNF7156 and GNF4877”. The “human β-cell proliferation (EdU incorporation), in words” value (“human β-cell proliferation … in words” for short) in assay [2] is “without any significant effects on human β-cell proliferation”.
On to `COC(=O)C1=C(C)NC(C)=C([N+](=O)[O-])C1c1ccccc1C(F)(F)F` (stereo not drawn) [Bay K8644], for which the “β-cell proliferation in combination with GNF4877” value in assay [1] is recorded as “showed additive activity with GNF4877”.
`Nc1ncnc2c1c(I)cn2[C@@H]1O[C@H](CO)[C@@H](O)[C@H]1O` [5-IT]: in assay [1], the “rat β-cell proliferation … in words” value is on record as “induced β-cell proliferation”. Besides, the “human β-cell proliferation … in words” value in assay [2] is reported as “induced β-cell proliferation”.
As for `COc1ccc(Cl)cc1C(=O)NCCc1ccc(S(=O)(=O)NC(=O)NC2CCCCC2)cc1` [glibenclamide], the “β-cell proliferation in combination with GNF4877” value in assay [1] is on record as “showed additive activity with GNF4877”.
As for `Cc1cnc(-c2cnc(NCCNc3ccc(C#N)cn3)nc2-c2ccc(Cl)cc2Cl)[nH]1` [Chiron99021], in assay [1], the “primary rat β-cell proliferation, combination of Chiron99021 with TG003” value was “additive induction of primary rat β-cell proliferation”; the “rat β-cell proliferation … in words” value was “significantly lower extent than GNF7156 and GNF4877”. For the same compound, the “human β-cell proliferation … in words” value in assay [2] is listed as “without any significant effects on human β-cell proliferation”.
As to cyclosporin A [CsA], the “effect of co-treatment on human β-cell proliferation induced by GNF4877” value in assay [2] is “reduced by co-treatment”.
For the compound `O=C1Cc2c([nH]c3ccc(Br)cc23)-c2ncccc2N1` [1-Akp], in assay [1], the “rat β-cell proliferation … in words” value was “significantly lower extent than GNF7156 and GNF4877”. Also, the “human β-cell proliferation … in words” value in assay [2] was “without any significant effects on human β-cell proliferation”.
Regarding `C=CC[C@@H]1/C=C(\C)C[C@H](C)C[C@H](OC)[C@H]2O[C@@](O)(C(=O)C(=O)N3CCCC[C@H]3C(=O)O[C@H](/C(C)=C/[C@@H]3CC[C@@H](O)[C@H](OC)C3)[C@H](C)[C@@H](O)CC1=O)[C@H](C)C[C@@H]2OC` [FK506], in assay [2], the “effect of co-treatment on human β-cell proliferation induced by GNF4877” value was “reduced by co-treatment”.
`CCN1/C(=C/C(C)=O)Sc2ccc(OC)cc21` [TG003]: in assay [1], the “primary rat β-cell proliferation, combination of Chiron99021 with TG003” value is reported as “additive induction of primary rat β-cell proliferation” and the “rat β-cell proliferation … in words” value is “induced β-cell proliferation”. Further, the “human β-cell proliferation … in words” value in assay [2] is reported as “induced β-cell proliferation”.
For orientation: IC50 means the concentration at which inhibition is half-maximal. As for `Nc1ncc(-c2ccccc2)nc1C(=O)Nc1ccccc1N1CCC(C(=O)O)CC1` [GNF6324], the “rat β-cell proliferation … in words” value in assay [1] is “completely inactive; also recorded: did not induce EdU incorporation in rat β-cells”. Further, the 50% inhibitory concentration (IC50) in assay [3] was over 50 µM. The “human β-cell proliferation … in words” value in assay [2] was “completely inactive”. Moreover, the “potency on Gsk3b, in words” value in assay [4] is reported as “retained similar potency to GNF7156 on Gsk3b”. The “eFluor670 staining intensity relative to control” value in assay [5] is on record as “nor cause a decrease in eFluor670 staining”. Moreover, the β-catenin nuclear translocation entry in assay [6] was “capable of inducing nuclear localization of β-catenin”.
Take `COc1ccc2c(c1)[nH]c1c(C)nccc12` [harmine]: the “rat β-cell proliferation … in words” value in assay [1] is “induced β-cell proliferation”. For the same compound, the “human β-cell proliferation … in words” value in assay [2] was “induced β-cell proliferation”.
